In one data set the test system is MCF-10A cells. The experiment in a line: Antiproliferative assay in vitro (SRB). Format: cell-based, human. As to conditions: read-out: Average IC50 ± SD, MCF-10A line. The method, then: (§1) Antiproliferative tests were performed on a normal human breast cell line, MCF-10A, and a mouse embryonic fibroblast: Balb/3T3. Both cell lines were obtained from the American Type Culture Collection (Rockville, MD, USA). The cell lines were maintained in the Institute of Immunology and Experimental Therapy, Wroclaw, Poland. MCF-10A cells were cultured in the F-12 nutrient mixture (Gibco, Scotland, UK), supplemented with 5% horse serum (Gibco, Scotland, UK), […] (Vibrio cholerae Pacini), 10 μg/mL of hydrocortisone and 20 ng/mL of human epidermal growth factor (all from Sigma-Aldrich, Chemie GmbH, Steinheim, Germany). Balb/3T3 cells were cultured in Dulbecco medium (Gibco, Darmstadt, Germany) supplemented with 10% fetal bovine serum (Thermo Fisher Scientific, Waltham, MA, USA) and 2 mM l-glutamine (Sigma-Aldrich, St. Louis, MO, USA). All culture media contained antibiotics: 100 U/mL penicillin (Sigma-Aldrich, St. Louis, MO, USA) and 100 µg/mL streptomycin (Polfa-Tarchomin, Warsaw, Poland). Both cell lines were cultured during the entire experiment in a humid atmosphere at 37 °C and 5% CO2. Amistar 250 SC (fungicide) with active compound azoxystrobin was provided by the Institute of Soil Science and Plant Cultivation, National Research Institute in Pulawy, Department of Weed Science and Tillage Systems in Wroclaw, Poland […].
(§2) Twenty-four hours prior to the applications of the tested compounds, MCF-10A and Balb/3T3 cells were plated in 96-well plates at a density of 10^4 cells per well and cultured at 37 °C in a humid atmosphere saturated with 5% CO2 for 24 h. Stock solutions of the compounds were prepared ex tempore for each test by dissolving in DMSO. The cells were also exposed to the reference drugs: cis-platin (Accord, London, UK) (10–0.01 µg/mL) and DMSO (Sigma-Aldrich) (at the concentrations corresponding to those in the tested agent dilutions). The solutions were then diluted in culture medium RPMI 1640 + Opti-MEM (1:1) (both from Gibco, Scotland, UK), supplemented with 2 mM l-glutamine, 5% fetal bovine serum (all from Sigma-Aldrich Chemie GmbH, Steinheim, Germany). An assay was performed after 72 h of exposure to the tested compounds 13, 17, 18, 19, 25, 27, 30, 4-hba, 4-hbah, and 3,4,5-hba (0.5, 5.0, 50, and to 500 µM) and azoxystrobin fungicide (0.05, 0.5, 5.0 and 50 µM). The antiproliferative effect in vitro was determined by the SRB method (sulforhodamine B colorimetric assay). The optical densities of the samples were measured on the Synergy H4 photometer (BioTek Instruments, Winooski, VT, USA) at 540 nm. The results were calculated as 50% inhibitory concentration (IC50), namely the dose of the tested compound inhibiting proliferation of the tested cells by 50% as compared to the untreated control cells, in the Prolab-3 system based on Cheburator 0.4 software using the two-point method. Each test was repeated 3–5 times.
(§3) Cytotoxicity was performed on two normal cell lines: MCF -10A and Balb/3T3, using as controls cis-platin in the concentrations of 0.03 32, 0.3 32, 3.32 and 33.2 µM and azoxystrobin fungicide in the […]
(§4) were tested in the concentrations of 0.5, 5.0, 50, and 500 µM. The relation of compound concentration […]
(§5) Further, a comparison of the influence of each tested concentration in the group of tested compounds on cell lines was illustrated in Figure S130 a (MCF-10A) and b (Balb/T3T).
(§6) Table S4. Cytotoxicity results for compounds 13, 17, 18, 19, 25, 27, and 30 investigated on normal mammalian lines: MCF -10A and B alb/3T3 using Azoxystrobin (fungicide) and cis-platin as reference compounds.
(§7) Cytotoxicity profile presented as proliferation inhibition, % (y -axis) in the function of compound concentration, […]
(§8) Structure MCF-10A Balb/3T3
(§9) Proliferation inhibition [%] […]

Another data set concerns Balb/3T3 cells. The experiment in a line: Antiproliferative assay in vitro (SRB). Particulars: read-out: Average IC50 ± SD, Balb/3T3 line. In kind it is cell-based, mouse. Here is the method:
as §1, §2, §3, §4, §5, §6, §7, §8, §9

Another data set deals with S. sclerotiorum. As to conditions: cited from earlier work.
For data set [1], the system named is acetylcholinesterase (AChE). Further details: method as in PMID 33668452. As to conditions: cited from earlier work.
For another data set, the system named is B. cinerea. As to conditions: cited from earlier work.
In the next data set the target is MPO (myeloperoxidase). Further details: method as in PMID 32278712. Particulars: cited from earlier work.
Data set [2] deals with Sclerotinia sclerotiorum strain FSc10. In words: In vitro antifungal activity, mycelial growth inhibition on PDA medium. As to conditions: screening at basal 50 µg/mL, PDA medium, mean ± SD of three determinations. In kind it is cell-based. Here is the method: (§10) The cultures of Botrytis cinerea strain FBc05 and Sclerotinia sclerotiorum strain FSc10 were obtained from the collection of the Division of Plant Pathology and Mycology at the Department of Plant Protection of Wroclaw University of Environmental and Life Sciences (Poland). Cerrena unicolor (Bull.ex.Fr.) Murr, strain no. 139, originated from the culture collection of the Department of Biochemistry, University of Lublin (Poland). The stock cultures were maintained on potato dextrose agar at +4 °C and periodically transferred to a fresh medium.
(§11) Prior to the fungicidal activity assay of hydrazide–hydrazones 1–35, we considered ethanol and DMSO as potential dissolution media for tested compounds. […] Furthermore, a very important aspect of biological testing is the careful selection of organic solvents. These are typically used, e.g., methanol, ethanol, acetone, and DMSO, and may be highly toxic for microorganisms in even very low concentrations, such as 1% (v/v). Ethanol and DMSO with a final concentration between 0.1 and 1.0% (v/v) in a PDA medium were used and applied to evaluate the inhibition growth of B. cinerea, S. sclerotiorum, and C. unicolor (see Supplementary Materials). The following procedure was applied to the microorganism testing. The assays of fungi inhibition growth were performed at a basal concentration of 50 µg/mL for all compounds, and detailed experiments were extended for testing between 0 and 50 µg/mL (0, 6.25, 12.5, 25.0, and 50.0 µg/mL) for selected compounds. The tests were carried out on Petri dishes (diameter 60 mm) with PDA medium containing appropriate compound, co-solvent control, and hydrazide–hydrazone dissolved in co-solvent assay. A piece of mycelium with a 5 mm edge taken from the outer edge of the growing fungi on the PDA plate with co-solvent was transferred to a central part of the PDA plate with the examined compound. The plates thus inoculated were incubated at 22 °C in the dark for a time when the control plate containing only the co-solvent was covered entirely with the tested microorganism. For B. cinerea and S. sclerotiorum, the test took 3 days, and for C. unicolor, it took 7 days. Each assay was performed at least in triplicate. […] Model parameters c and e were estimated using the nonlinear least-squares method. Parameters d and b (with two exceptions) were fixed and assumed to be equal. Based on estimated parameters, the values of IC50 were determined. […] The IC50 values were calculated only in cases when the model predicted a decrease in growth rate by more than 50%.
(§12) In vitro antifungal activity
(§13) Prior to the fungicidal activity assay of hydrazide-hydrazones 1–35, we considered ethanol (EtOH) and DMSO as potential dissolution media for tested compounds.
(§14) EtOH and DMSO with a final concentration between 0.1–1.0% (v/v) in a PDA medium were applied to evaluate the inhibition growth of B. cinerea, S. sclerotiorum, and C. unicolor (see Table S3). The following procedure was applied to the microorganism testing with the hydrazide-hydrazones. The assays of fungi inhibition growth were performed at a basal concentration of 50 µg/mL for all compounds, and detailed experiments were extended for testing selected molecules 18, 19, 27, […]
(§15) Table S2. In vitro antifungal activity for DMSO and ethanol co-solvents.

In data set [3] the test system is Cerrena unicolor strain no. 139. Described as above. In kind it is cell-based. As to conditions: Cerrena unicolor, NO.139; screening at basal 50 µg/mL, PDA medium, mean ± SD of three determinations; read-out: fungal growth inhibition, C. unicolor. The method, then: as §10, §11, §12, §13, §14, §15
Data set [4] deals with Botrytis cinerea strain FBc05. Described as above. In kind it is cell-based. As to conditions: screening at basal 50 µg/mL, PDA medium, mean ± SD of three determinations; for inhibition of growth at 50 µg/mL: Botrytis cinerea, FBC05, read-out: fungal growth inhibition, B. cinerea. Here is the method:
as §10, §11, §12, §13, §14, §15

The target in data set [5] is laccase from Trametes versicolor. As to conditions: read-out: Laccase inhibition, Ki; cited from earlier work.
The subject of another data set is Candida. Also on record: method as in PMID 23142671. As to conditions: cited from earlier work.

Like-named read-outs stand apart in the source and are kept apart here.

A word on the melting point: it is the temperature of the solid-liquid transition. Broadly, the Ki is a measure of affinity in units of concentration, obtained from inhibition or displacement.

Consider `O=C(O)c1cc(O)c(O)c(O)c1` [3,4,5-hba, gallic acid, reference compound], for which the IC50 in the data set on MCF-10A cells (Homo sapiens, MCF-10A, 72 h) was 174 ± 14.3 µM; with Balb/3T3 cells (Mus musculus, BALB/3T3, 72 h), 163 ± 1.95 µM.
Regarding `O=C(NN=Cc1cn(-c2ccccc2Cl)nn1)c1ccccc1` [((1-(2-chlorophenyl)-1H-1,2,3-triazol-4-yl)methylene)benzohydrazide], the “activity against S. sclerotiorum” value in the data set with S. sclerotiorum (25 µg/mL) is “inactive”.
For the compound `COc1ccc(/C=N/NC(=O)c2cn(C)c3ccccc3c2=O)cc1OC` [(E)-N′-(3,4-dimethoxybenzylidene)-1-methyl-4-oxo-1,4-dihydroquinoline-3-carbohydrazide], the “S. sclerotiorum growth inhibition” value in the data set on S. sclerotiorum was “more than 80%”.
Consider `Cn1cc(C(=O)N/N=C/c2cc3ccccc3[nH]2)c(=O)c2ccccc21` [(E)-N′-((1H-indol-2-yl)methylene)-1-methyl-4-oxo-1,4-dihydroquinoline-3-carbohydrazide], for which, in the data set with S. sclerotiorum, the “S. sclerotiorum growth inhibition” value is listed as “more than 80%”.
As to `CO/C=C(/C(=O)OC)c1ccccc1Oc1cc(Oc2ccccc2C#N)ncn1` [Azoxystrobin, reference compound], the IC50 in the data set on Balb/3T3 cells (72 h exposure, SRB method) turned out to be 0.1 ± 0.03 µM.
For the compound `N.N.[Cl][Pt][Cl]` [Cis-platin, reference compound], the IC50 in the data set on MCF-10A cells (72 h exposure, SRB method) turned out to be 9.27 ± 1.63 µM; in the data set with Balb/3T3 cells (72 h exposure, SRB method), 9.8 ± 1.93 µM.
On to `O=C(N/N=C/c1ccccc1O)c1ccc(C(F)(F)F)cc1` [IX], for which the BuChE/AChE selectivity in data set [1] was 18.6.
As to `CC1N[C@H](C(=O)NN=Cc2ccc(Cl)c(Cl)c2)Cc2c1[nH]c1ccccc21` (stereo partly drawn) [N′-(3,4-dichloro-benzylidene)-(3S)-1-methyl-2,3,4,9-tetrahydro-1H-pyrido[3,4-b]indole-3-carbohydrazide], the “growth inhibition of B. cinerea” value with B. cinerea is “more than 80%”. Moreover, in the data set with S. sclerotiorum, the “growth inhibition of S. sclerotiorum” value is on record as “more than 80%”.
For the compound `CC1N[C@H](C(=O)NN=Cc2ccc(C(C)(C)C)cc2)Cc2c1[nH]c1ccccc21` (stereo partly drawn) [N′-(4-tert-butyl-benzylidene)-(3S)-1-methyl-2,3,4,9-tetra-hydro-1H-pyrido [3,4-b]indole-3-carbohydrazide], in the data set with B. cinerea, the “growth inhibition of B. cinerea” value is on record as “more than 80%”. Moreover, the “growth inhibition of S. sclerotiorum” value in the data set on S. sclerotiorum is “more than 80%”.
For `Cc1ccc(C(=O)ON=C2C=CC(=NNC(=O)c3ccccc3)C=C2)cc1` [N′-(4-{[(4-methylbenzoyl)oxy]imino}cyclohexa-2,5-dien-1-ylidene)benzohydrazide], the “restriction of mycelium growth, B. cinerea” value with B. cinerea was 35%.
For the compound `O=C(N/N=C/c1cc(O)ccc1O)c1ccncc1` [X], at MPO (myeloperoxidase), the IC50 was 4.8 µM.
For the compound `O=C(N/N=C/c1ccc(O)cc1O)c1ccccc1` [compound 22], the melting point was 255 to 256 °C (dec.). For the same compound, the “fungal growth inhibition, S. sclerotiorum” value in data set [2] is reported as “n.o”. Also, the inhibition of growth at 50 µg/mL in data set [3] came to 75.4 ± 6.2%. Also, the inhibition of growth at 50 µg/mL in data set [4] stood at 32 ± 2.9%.
As for `O=C(N/N=C/c1cc(O)c(O)cc1O)c1ccc(O)cc1` [compound 23], the melting point is 253 °C (dec.). Further, the inhibition of growth at 50 µg/mL in data set [2] (Sclerotinia sclerotiorum, FSC10, read-out: fungal growth inhibition, S. sclerotiorum) amounted to 2.7 ± 0.4%. For the same compound, in data set [3], the inhibition of growth at 50 µg/mL came out at 5.8 ± 2.7%. Besides, the inhibition of growth at 50 µg/mL in [4] turned out to be 6.8 ± 2.5%.
As for `COc1cc(/C=N/NC(=O)c2ccc(O)cc2)c(O)c(CO)c1` [compound 26, 4-Hydroxy-N′-[(E)-(2-hydroxy-3-hydroxymethyl-5-methoxyphenyl)methylidene]benzohydrazide], the melting point was in the range of 219 to 220 °C. The “fungal growth inhibition, S. sclerotiorum” value in data set [2] is “n.o”. Moreover, the inhibition of growth at 50 µg/mL in data set [3] amounted to 54.6 ± 3.1%. Also, in data set [4], the inhibition of growth at 50 µg/mL is 3.2 ± 0.5%.
For `CC(=O)NN=Cc1cc(C)cc(C(C)(C)C)c1O` [compound 35], the “fungal growth inhibition, S. sclerotiorum” value in data set [2] is reported as “n.o”. Moreover, the inhibition of growth at 50 µg/mL in [3] came to 45.7 ± 0.5%. Further, the “fungal growth inhibition, B. cinerea” value in data set [4] is “n.o”. Besides, the Ki in data set [5] was at least 1000 µM.
On to `COc1ccc2c3c1O[C@H]1C[C@@H](O)C=C[C@@]31CCN(C)C2` [galantamine, reference compound], for which the BuChE/AChE selectivity in data set [1] is given as 1.8.
For the compound `CC(=O)N1CCN(c2ccc(OCC3COC(Cn4ccnc4)(c4ccc(Cl)cc4Cl)O3)cc2)CC1` (stereo not drawn) [ketoconazole, reference compound], in the data set with Candida, the “MIC, anticandidal activity” value is 1 to 31 µg/mL.

(Values after article PMC11124341, “4-Hydroxybenzoic Acid-Based Hydrazide–Hydrazones as Potent Growth Inhibition Agents of Laccase-Producing Phytopathogenic Fungi That Are Useful in the Protection of Oilseed Crops” (Molecules, 2024).)
